Source: patent US20250339569A1, “CARBONIC ANHYDRASE IX LIGANDS” (priority 2021, published 2025)
Values belong to the compound of their own block, whether it stands above or below them. Starred links: 1 amine or outer side, 2 acyl side, 3 side chain; linkers in the order of their positions; H or OH if unused. Positions of bridges follow the written chain, without caps; N, C: chain ends. Non-standard residues stand in square brackets, D forms with d. Residues, ends and D or L forms follow the SMILES beside them. *: point of attachment. Phe(3-NHCO(CH2)3SO2NH2) = N[C@@H](Cc1cccc(NC(=O)CCCS(N)(=O)=O)c1)C(=O)O; DOTA = O=C(O)CN1CCN(CC(=O)O)CCN(CC(=O)*)CCN(CC(=O)O)CC1; X5 = O=C(O)CCCC(=O)Nc1cccc(C[C@H](N[*:1])C(=O)[*:2])c1; mXylylene = c1cc(C[*:1])cc(C[*:2])c1; X2 = O=C(CN1CCC(N[*:1])CC1)[*:2]

How the values were obtained:
[1] = mouse, plasma, 24 h
[2] = biological target: T1, human carbonic anhydrase IX (hCAIX-Fc) (Homo sapiens, UniProt Q16790); test: Surface plasmon resonance assay with hCAIX-Fc; assay type: binding; details: 25° C.; for t1/2 category (activity): SPR dissociation half-life, hCAIX-Fc; for Kd: SPR, hCAIX-Fc captured, read-out: pKD category (activity) (converted)
T1 construct: purchased SinoBliological (Sino Biological) 10107-H02H

[3] = biological target: T2, CAIX-expressing human HT-29 colorectal cancer cells (Homo sapiens, UniProt Q16790); test: FACS binding assay (IC50 determination, competition with tracer 3BP-2776 or 3BP-4149); details: FACS binding assay, HT-29 cells, competition with tracer 3BP-4149 (3 nM, Cy5-labeled), 4° C., 1 hour; read-out: pIC50 category (activity) (converted)
T2 construct: CAIX-expressing human HT-29 colorectal cancer cells; host or cells: HT-29 human colorectal cancer cells
In short: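 HT-29 cells in FACS buffer (PBS, 1% FCS) at 500.000 cells/ml were exposed to compounds competing with a labelled tracer, with biotinylated compounds detected by 1 μg/mL APC-streptavidin for 30 min on ice. APC/Cy5 median fluorescence was read by flow cytometry and IC50 derived by 4PL fit.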

HT-29 tumor = test: Biodistribution study (SPECT/CT) in HT-29 tumor-bearing mice; assay type: in vivo, NMRI nude mice; details: mouse, in vivo
Experimental: (§1) The effect on tumor uptake of prior injection of gelofusine for kidney protection was investigated in mice bearing the SK-RC-52 tumor. Biodistribution was evaluated using in vivo SPECT/CT imaging. Prior to the in vivo study the compounds (ligands) were initially radiolabeled with In-111 and the stability of radiolabeled compounds was evaluated in buffer at three different timepoints.
(§2) The study was performed in female NMRI nude mice (approximately 6 weeks of age) from Janvier Labs, France, housed up to 5 mice per cage.
(§3) The column was washed with 2 mL water, and then the final product was eluted from the column in EtOH solution (50%) • The sample was formulated in PBS to the final concentration of 150 MBq/mL and 5 nmol/mL.
(§4) SK-RC-52 cells were cultured in RPMI 1640 with GlutaMax-I (Thermo Fisher Scientific #61870044) supplemented with 10% fetal bovine serum+1% penicillin/streptomycin, harvested, washed twice in RPMI 1640 and resuspended at 2×10^7 cells/mL in RPMI 1640. HT-29 cells were cultured in McCoy's 5a Medium Modified (Sigma #M9309). For inoculation of HT-29 cells, cells were harvested, washed twice in PBS and resuspended at 5×10^7 cells/mL in PBS. Cells were kept on ice until inoculation.
(§5) Animals were anaesthetized (isoflurane, 2-4% in ambient air supplemented with 100% 02) prior to tumor inoculation. The tumor cells (100 μL suspension of either SK-RC-52 cells (2×10^6 cells/animal) or HT-29 cells (5×10^6 cells/animal)) were subcutaneously inoculated in the right flank using a 1-mL syringe equipped with a 27 G needle. Tumor growth and animal weight were measured twice per week. Tumor size was measured by caliper and the volume was estimated using the following formula: 0.52×(length×width^2). When tumor sizes reached 150-250 mm^3, animals were randomized into groups (n=3) of similar average tumor volume and body weight.
(§6) Animals were injected intravenously with In-111-labeled compounds (single bolus, 22.3-31.2 MBq, ˜1 nmol ligand, injection volume: 100 μL) in the lateral tail vein using a 29 G syringe.
(§7) CT was performed with helical scan, 300 ms exposure, reconstruction resolution of 250 μm. SPECT was performed with multi-pinhole scan and a 30 s frame time. For the quantification of the radioactivity uptake, regions of interests (ROIs) were drawn over the tumor, kidney, liver, and heart (estimate of blood) identified on the images. Uptake was expressed as percent of injected dose per gram tissue (% ID/g).

[4] = as above; assay type: in vivo, NMRI nude mice; details: female, NMRI nude, mouse, in vivo, iv, total radioactivity
Experimental: as §1, §2, §3, §4, §5, §6, §7

[5] = Biodistribution study (SPECT/CT) in SK-RC-52 tumor-bearing mice with or without gelofusine; assay type: in vivo, NMRI nude mice; details: female, NMRI nude, mouse, in vivo, iv, total radioactivity
Experimental: as §1, §2, §3, §4, §5, §6, §7

SK-RC-52 tumor = test: as above; assay type: in vivo, NMRI nude mice; details: mouse, in vivo
Experimental: as §1, §2, §3, §4, §5, §6, §7

[6] = Tumor/Blood uptake ratio at 4 h p.i.
[7] = Tumor/Liver uptake ratio at 4 h p.i.

% intact compound remaining (incubation time) [1]: >95%
t1/2 category (activity) [2]: A (t1/2>15.0 minutes)
Kd [2]: < 10 nM
IC50 [3]: < 10 nM
Compound: CC(C)C[C@@H]1NC(=O)[C@H](Cc2cccc(NC(=O)CCCC(=O)O)c2)NC(=O)[C@H](CC(=O)O)NC(=O)[C@H]2CCCN2C(=O)[C@H](CCC(=O)O)NC(=O)[C@@H](NC(=O)[C@H](Cc2ccc(O)cc2)NC(=O)[C@@H](NC(=O)CN2CCC(NC(=O)CN3CCN(CC(=O)O)CCN(CC(=O)O)CCN(CC(=O)O)CC3)CC2)C(C)C)CSCc2cccc(c2)CSC[C@@H](C(N)=O)NC(=O)[C@H](CO)NC(=O)[C@H](Cc2c[nH]c3ccccc23)NC(=O)[C@H]([C@@H](C)O)NC1=O [3BP-4367] ({DOTA}-[X2]VYCE[dP]D[X5]LTWSC-NH2; linker 4-13 via mXylylene)

% intact compound remaining (incubation time) [1]: >95%
t1/2 category (activity) [2]: A (t1/2>15.0 minutes)
Kd [2]: < 10 nM
IC50 [3]: < 10 nM
Compound: CC(C)C[C@@H]1NC(=O)[C@H](Cc2cccc(NC(=O)CCCS(N)(=O)=O)c2)NC(=O)[C@H](CC(=O)O)NC(=O)[C@H]2CCCN2C(=O)[C@H](CCC(=O)O)NC(=O)[C@@H](NC(=O)[C@H](Cc2ccc(O)cc2)NC(=O)[C@@H](NC(=O)CN2CCC(NC(=O)CN3CCN(CC(=O)O)CCN(CC(=O)O)CCN(CC(=O)O)CC3)CC2)C(C)C)CSCc2cccc(c2)CSC[C@@H](C(N)=O)NC(=O)[C@H](CO)NC(=O)[C@H](Cc2c[nH]c3ccccc23)NC(=O)[C@H]([C@@H](C)O)NC1=O [3BP-4369] ({DOTA}-[X2]VYCE[dP]D[Phe(3-NHCO(CH2)3SO2NH2)]LTWSC-NH2; linker 4-13 via mXylylene)

Compound: CC(C)C[C@@H]1NC(=O)[C@H](Cc2ccc(NC(=O)CCS(N)(=O)=O)cc2)NC(=O)[C@H](CC(=O)O)NC(=O)[C@H]2CCCN2C(=O)[C@H](CCC(=O)O)NC(=O)[C@@H](NC(=O)[C@H](CCC(N)=O)NC(=O)CN2CCN(CC(=O)O)CCN(CC(=O)O)CCN(CC(=O)O)CC2)CSCc2cccc(c2)CSC[C@@H](C(N)=O)NC(=O)[C@H](CO)NC(=O)[C@H](Cc2c[nH]c3ccccc23)NC(=O)[C@H]([C@@H](C)O)NC1=O [DPI-4501, DOTA-Gln-[Cys(3MeBn)-Glu-pro-Asp-Aph(SaPr)-Leu-Thr-Trp-Ser-Cys]-NH2]
Time to peak uptake in tumor (HT-29 tumor): 2 h
% remaining tumor uptake at 24 h p.i. (HT-29 tumor; 24 h): 80 ± 4.4%
tissue uptake at 4 h ([4]; Blood uptake at 4 h p.i.): 0.04 ± 0.005 %ID/g
tissue uptake at 24 h ([4]; Kidney uptake at 24 h p.i.): 2.16 ± 0.36 %ID/g
tissue uptake at 4 h ([4]; Liver uptake at 4 h p.i.): 0.12 ± 0.01 %ID/g
tissue uptake ([4]; Peak Kidney uptake): 5.61 ± 0.57 %ID/g
tissue uptake ([4]; Peak Tumor Uptake): 3.81 ± 0.26 %ID/g
tissue to tissue ratio at 4 h [4, 6]: 104 ± 10.2
tissue to tissue ratio at 4 h [4, 7]: 29.8 ± 2.5
tissue to tissue ratio at 24 h ([4]; Tumor/kidney uptake ratio at 24 h p.i.): 1.5 ± 0.1
tissue uptake at 4 h ([5]; Blood uptake at 4 h p.i.): 0.05 ± 0.01 %ID/g
tissue uptake at 4 h ([5]; Liver uptake at 4 h p.i.): 0.08 ± 0.01 %ID/g
tissue uptake ([5]; Peak Tumor Uptake): 7.17 ± 1.92 %ID/g
tissue to tissue ratio at 4 h [5, 6]: 128 ± 20.3
tissue to tissue ratio at 4 h [5, 7]: 70.2 ± 17
Peak Tumor Uptake (SK-RC-52 tumor; female, NMRI nude, iv): 6.01 ± 0.39 % ID/g
Blood uptake at 4 h p.i. (SK-RC-52 tumor; female, NMRI nude, iv, 4 h): 0.03 ± 0.003 % ID/g
Liver uptake at 4 h p.i. (SK-RC-52 tumor; female, NMRI nude, iv, 4 h): 0.07 ± 0.01 % ID/g
Tumor/Blood uptake ratio at 4 h p.i. (SK-RC-52 tumor; female, NMRI nude, iv, 4 h): 178.6 ± 39.3
Tumor/Liver uptake ratio at 4 h p.i. (SK-RC-52 tumor; female, NMRI nude, iv, 4 h): 81.4 ± 14.0
Time to peak uptake in tumor (SK-RC-52 tumor): 1 h
